Data taken from article PMC2033796, “Mechanisms of acquired resistance to the quinazoline thymidylate synthase inhibitor ZD1694 (Tomudex) in one mouse and three human cell lines” (British Journal of Cancer, 1995).

Biological target: T1, TS isolated from human ovarian CH1 cells (CH1 TS) (Homo sapiens, UniProt P04818)
T1 construct: gene TYMS; native enzyme partially purified from CH1 ovarian tumour cells (parental line), no tag
Experiment: 3H release from [[…]-3H]dUMP, non-linear regression
Assay type: biochemical

T1 sequence (P04818 2-313): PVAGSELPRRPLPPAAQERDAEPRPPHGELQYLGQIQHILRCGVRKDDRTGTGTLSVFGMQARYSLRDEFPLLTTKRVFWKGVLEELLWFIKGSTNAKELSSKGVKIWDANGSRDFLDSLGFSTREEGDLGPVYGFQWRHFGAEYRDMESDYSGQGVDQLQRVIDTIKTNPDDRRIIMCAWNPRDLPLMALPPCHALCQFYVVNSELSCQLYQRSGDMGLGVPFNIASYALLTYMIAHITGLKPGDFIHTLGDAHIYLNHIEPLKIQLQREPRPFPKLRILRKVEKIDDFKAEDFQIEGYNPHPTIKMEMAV

Ki: 1.6 ± 0.1 nM
Structure (SMILES): Cc1nc2ccc(CN(C)c3ccc(C(=O)N[C@@H](CCC(=O)N[C@@H](CCC(=O)N[C@@H](CCC(=O)O)C(=O)O)C(=O)O)C(=O)O)s3)cc2c(=O)[nH]1 [ZD1694 triglutamate]
